# Measurements from patent publication US11957696B2 (Propella Therapeutics, Inc., priority 2021, dated 2024).
# Tested on: CYP17 hydroxylase/lyase
# Assay: Steroid hormone analysis (serum) in 13-week study
# Assay type: in vivo, cynomolgus monkeys
# Conditions: for Serum 17OH-Progesterone CFB (vs Day −1) / Serum 17OH-Progesterone Mean / Serum Aldosterone CFB (vs Day −1) / Serum Aldosterone Mean / Serum Androstenedione CFB (vs Day −1) / Serum Androstenedione Mean / Serum Corticosterone CFB (vs Day −1) / Serum Corticosterone Mean / Serum Cortisol CFB (vs Day −1) / Serum Cortisol Mean / Serum Dehydroepiandrosterone CFB (vs Day −1) / Serum Dehydroepiandrosterone Mean / Serum Deoxycortisol CFB (vs Day −1) / Serum Deoxycortisol Mean / Serum Dihydrotestosterone CFB (vs Day −1) / Serum Dihydrotestosterone Mean / Serum Progesterone CFB (vs Day −1) / Serum Progesterone Mean / Serum Testosterone CFB (vs Day −1) / Serum Testosterone Mean: intact male monkeys
# Experimental: Sample Collection for Steroid Hormone Analysis (Serum): Blood samples (approximately 2.5 mL) were collected from all animals via the femoral vein for the steroid hormone analysis. The animals were fasted prior to blood collection.
# [1] = 20 mg/kg IM every two weeks, Day 15
# [2] = 20 mg/kg IM every two weeks, Day 85
# [3] = 60 mg/kg IM every two weeks, Day 15
# [4] = 60 mg/kg IM every two weeks, Day 85
# [5] = 200 mg/kg IM every two weeks, Day 15
# [6] = 200 mg/kg IM every two weeks, Day 85
# [7] = Day 85, 20 and 60 mg/kg dose groups
structure (smiles),measurement,setting,value
"CCCCCCCCCC(=O)O[C@H]1CC[C@@]2(C)C(=CC[C@@H]3[C@@H]2CC[C@]2(C)C(c4cccnc4)=CC[C@@H]32)C1 [Abiraterone Decanoate, abiraterone decanoate]",Serum 17OH-Progesterone CFB (vs Day −1),[1],1060%
same,Serum 17OH-Progesterone Mean,[1],4289 pg/mL
same,Serum Aldosterone CFB (vs Day −1),[1],−68%
same,Serum Aldosterone Mean,[1],45 pg/mL
same,Serum Androstenedione CFB (vs Day −1),[1],−82%
same,Serum Androstenedione Mean,[1],39 pg/mL
same,Serum Corticosterone CFB (vs Day −1),[1],3361%
same,Serum Corticosterone Mean,[1],110635 pg/mL
same,Serum Cortisol CFB (vs Day −1),[1],−76%
same,Serum Cortisol Mean,[1],34897 pg/mL
same,Serum Dehydroepiandrosterone CFB (vs Day −1),[1],−73%
same,Serum Dehydroepiandrosterone Mean,[1],1500 pg/mL
same,Serum Deoxycortisol CFB (vs Day −1),[1],−64%
same,Serum Deoxycortisol Mean,[1],241 pg/mL
same,Serum Dihydrotestosterone CFB (vs Day −1),[1],−87%
same,Serum Dihydrotestosterone Mean,[1],195 pg/mL
same,Serum Progesterone CFB (vs Day −1),[1],51539%
same,Serum Progesterone Mean,[1],10328 pg/mL
same,Serum Testosterone CFB (vs Day −1),[1],−65%
same,Serum Testosterone Mean,[1],2148 pg/mL
same,Serum Testosterone CFB (vs Day −1),"20 mg/kg IM every two weeks, Day 15, listed as AbiDec",−87%
same,Serum 17OH-Progesterone CFB (vs Day −1),[2],1968%
same,Serum 17OH-Progesterone Mean,[2],7647 pg/mL
same,Serum Aldosterone CFB (vs Day −1),[2],40%
same,Serum Aldosterone Mean,[2],199 pg/mL
same,Serum Androstenedione CFB (vs Day −1),[2],−53%
same,Serum Androstenedione Mean,[2],106 pg/mL
same,Serum Corticosterone CFB (vs Day −1),[2],2837%
same,Serum Corticosterone Mean,[2],93869 pg/mL
same,Serum Cortisol CFB (vs Day −1),[2],−58%
same,Serum Cortisol Mean,[2],62490 pg/mL
same,Serum Dehydroepiandrosterone CFB (vs Day −1),[2],−76%
same,Serum Dehydroepiandrosterone Mean,[2],1372 pg/mL
same,Serum Deoxycortisol CFB (vs Day −1),[2],−47%
same,Serum Deoxycortisol Mean,[2],357 pg/mL
same,Serum Dihydrotestosterone CFB (vs Day −1),[2],−61%
same,Serum Dihydrotestosterone Mean,[2],578 pg/mL
same,Serum Progesterone CFB (vs Day −1),[2],47710%
same,Serum Progesterone Mean,[2],9562 pg/mL
same,Serum Testosterone CFB (vs Day −1),[2],3%
same,Serum Testosterone Mean,[2],6286 pg/mL
same,Serum 17OH-Progesterone CFB (vs Day −1),[3],944%
same,Serum 17OH-Progesterone Mean,[3],1631 pg/mL
same,Serum Aldosterone CFB (vs Day −1),[3],−94%
same,Serum Aldosterone Mean,[3],14 pg/mL
same,Serum Androstenedione CFB (vs Day −1),[3],−94%
same,Serum Androstenedione Mean,[3],20 pg/mL
same,Serum Corticosterone CFB (vs Day −1),[3],5279%
same,Serum Corticosterone Mean,[3],163079 pg/mL
same,Serum Cortisol CFB (vs Day −1),[3],−87%
same,Serum Cortisol Mean,[3],18271 pg/mL
same,Serum Dehydroepiandrosterone CFB (vs Day −1),[3],−75%
same,Serum Dehydroepiandrosterone Mean,[3],1271 pg/mL
same,Serum Deoxycortisol CFB (vs Day −1),[3],−72%
same,Serum Deoxycortisol Mean,[3],93 pg/mL
same,Serum Dihydrotestosterone CFB (vs Day −1),[3],−95%
same,Serum Dihydrotestosterone Mean,[3],64 pg/mL
same,Serum Progesterone CFB (vs Day −1),[3],69193%
same,Serum Progesterone Mean,[3],13859 pg/mL
same,Serum Testosterone CFB (vs Day −1),[3],−94%
same,Serum Testosterone Mean,[3],335 pg/mL
same,Serum Testosterone CFB (vs Day −1),"60 mg/kg IM every two weeks, Day 15, listed as AbiDec",−95%
same,Serum 17OH-Progesterone CFB (vs Day −1),[4],5546%
same,Serum 17OH-Progesterone Mean,[4],8821 pg/mL
same,Serum Aldosterone CFB (vs Day −1),[4],−18%
same,Serum Aldosterone Mean,[4],194 pg/mL
same,Serum Androstenedione CFB (vs Day −1),[4],−77%
same,Serum Androstenedione Mean,[4],79 pg/mL
same,Serum Corticosterone CFB (vs Day −1),[4],3878%
same,Serum Corticosterone Mean,[4],120598 pg/mL
same,Serum Cortisol CFB (vs Day −1),[4],−72%
same,Serum Cortisol Mean,[4],39689 pg/mL
same,Serum Dehydroepiandrosterone CFB (vs Day −1),[4],−76%
same,Serum Dehydroepiandrosterone Mean,[4],1200 pg/mL
same,Serum Deoxycortisol CFB (vs Day −1),[4],−7%
same,Serum Deoxycortisol Mean,[4],315 pg/mL
same,Serum Dihydrotestosterone CFB (vs Day −1),[4],−69%
same,Serum Dihydrotestosterone Mean,[4],361 pg/mL
same,Serum Progesterone CFB (vs Day −1),[4],67947%
same,Serum Progesterone Mean,[4],13609 pg/mL
same,Serum Testosterone CFB (vs Day −1),[4],1%
same,Serum Testosterone Mean,[4],5453 pg/mL
same,Serum 17OH-Progesterone CFB (vs Day −1),[5],158%
same,Serum 17OH-Progesterone Mean,[5],474 pg/mL
same,Serum Aldosterone CFB (vs Day −1),[5],−91%
same,Serum Aldosterone Mean,[5],19 pg/mL
same,Serum Androstenedione CFB (vs Day −1),[5],−93%
same,Serum Androstenedione Mean,[5],20 pg/mL
same,Serum Corticosterone CFB (vs Day −1),[5],4238%
same,Serum Corticosterone Mean,[5],138133 pg/mL
same,Serum Cortisol CFB (vs Day −1),[5],−93%
same,Serum Cortisol Mean,[5],7703 pg/mL
same,Serum Dehydroepiandrosterone CFB (vs Day −1),[5],−64%
same,Serum Dehydroepiandrosterone Mean,[5],1200 pg/mL
same,Serum Deoxycortisol CFB (vs Day −1),[5],−84%
same,Serum Deoxycortisol Mean,[5],44 pg/mL
same,Serum Dihydrotestosterone CFB (vs Day −1),[5],−96%
same,Serum Dihydrotestosterone Mean,[5],67 pg/mL
same,Serum Progesterone CFB (vs Day −1),[5],59894%
same,Serum Progesterone Mean,[5],11999 pg/mL
same,Serum Testosterone CFB (vs Day −1),[5],−99%
same,Serum Testosterone Mean,[5],100 pg/mL
same,Serum Testosterone CFB (vs Day −1),"200 mg/kg IM every two weeks, Day 15, listed as AbiDec",−96%
same,Serum 17OH-Progesterone CFB (vs Day −1),[6],1696%
same,Serum 17OH-Progesterone Mean,[6],3296 pg/mL
same,Serum Aldosterone CFB (vs Day −1),[6],−82%
same,Serum Aldosterone Mean,[6],37 pg/mL
same,Serum Androstenedione CFB (vs Day −1),[6],−87%
same,Serum Androstenedione Mean,[6],39 pg/mL
same,Serum Corticosterone CFB (vs Day −1),[6],3468%
same,Serum Corticosterone Mean,[6],113629 pg/mL
same,Serum Cortisol CFB (vs Day −1),[6],−83%
same,Serum Cortisol Mean,[6],19682 pg/mL
same,Serum Dehydroepiandrosterone CFB (vs Day −1),[6],−64%
same,Serum Dehydroepiandrosterone Mean,[6],1200 pg/mL
same,Serum Deoxycortisol CFB (vs Day −1),[6],−49%
same,Serum Deoxycortisol Mean,[6],141 pg/mL
same,Serum Dihydrotestosterone CFB (vs Day −1),[6],−90%
same,Serum Dihydrotestosterone Mean,[6],165 pg/mL
same,Serum Progesterone CFB (vs Day −1),[6],75799%
same,Serum Progesterone Mean,[6],15180 pg/mL
same,Serum Testosterone CFB (vs Day −1),[6],−87%
same,Serum Testosterone Mean,[6],1246 pg/mL
same,Serum Testosterone CFB (vs Day −1),"200 mg/kg IM every two weeks, Day 85, listed as AbiDec",−87%
same,serum testosterone levels reduced,"200 mg/kg/dose, for at least 85 days",more than 75%
same,Androstenedione serum concentration below Day −1,[7],53-77%
same,dihydrotestosterone serum concentration below Day −1,[7],61-69%
same,circulating androgen levels,"gonadally intact male monkeys, appeared dose dependent, sustained for testosterone through Day 85 at 200 mg/kg/dose",potent reductions in circulating androgen levels
same,Serum testosterone concentrations following repeat administration,"two lower dose groups (20, 60 mg/kg) by Day 85",returned to baseline
